Source: patent US4771062A, “Diaryl sulphide derivatives” (Bayer Aktiengesellschaft, priority 1986, dated 1988)
Counter-ions that a name gives are not always drawn.

target: T1, lipoxygenase activity of PMN (Rattus norvegicus, UniProt P12527); test: LTB4 formed after stimulation with Ca-ionophor, determined by reversed phase HPLC, as a measure of the lipoxygenase activity of PMN; type: cell-based, rats; settings: LTB4 formation, Ca-ionophor stimulated rat PMN
T1 construct: lipoxygenase activity of PMN in rats; endogenous in cells; host or cells: rat PMN (polymorphonuclear leucocytes)
T1 sequence (P12527 1-673): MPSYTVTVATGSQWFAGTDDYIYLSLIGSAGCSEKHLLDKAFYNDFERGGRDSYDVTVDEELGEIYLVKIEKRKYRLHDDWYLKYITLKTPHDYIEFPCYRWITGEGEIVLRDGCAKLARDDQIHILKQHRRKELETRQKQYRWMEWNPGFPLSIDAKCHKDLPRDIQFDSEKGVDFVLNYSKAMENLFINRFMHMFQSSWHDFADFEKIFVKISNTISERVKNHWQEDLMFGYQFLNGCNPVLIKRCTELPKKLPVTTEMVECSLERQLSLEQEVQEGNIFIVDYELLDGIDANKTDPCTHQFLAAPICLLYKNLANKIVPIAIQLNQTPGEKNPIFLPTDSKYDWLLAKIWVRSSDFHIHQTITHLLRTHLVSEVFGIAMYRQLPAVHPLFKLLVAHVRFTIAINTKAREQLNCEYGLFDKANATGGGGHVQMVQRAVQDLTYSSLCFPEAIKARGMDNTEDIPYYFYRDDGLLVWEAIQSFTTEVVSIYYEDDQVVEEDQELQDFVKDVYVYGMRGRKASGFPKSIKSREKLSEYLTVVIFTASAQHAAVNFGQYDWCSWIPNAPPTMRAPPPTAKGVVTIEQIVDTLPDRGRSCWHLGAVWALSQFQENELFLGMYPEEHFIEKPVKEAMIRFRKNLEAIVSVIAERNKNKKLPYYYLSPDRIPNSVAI
Protocol: The pharmacological action of the substances according to the invention was determined by the following method:
The leucotriene B4 (LTB4) formed after stimulation with Ca-ionophor is determined by means of reversed phase HPLC in accordance with the method of Borgeat et al. Proc. Natl. Acad. Sci. USA, 76, 215 (1982) as a measure of the lipoxygenase activity of PMN in rats.

Compound	IC50
Cc1ccc(S(=O)(=O)Nc2ccc(Sc3ccc(NC4=NCCS4)cc3)cc2)cc1 [Example 29, 4-(Δ^2 -Thiazolin-2-yl)amino-4'-tosylaminodiphenyl sulphide]	145 nM
c1ccc(C2CSC(Nc3ccc(Sc4ccc(NC5=NC(c6ccccc6)CS5)cc4)cc3)=N2)cc1 (stereo not drawn) [Example 4, Bis[4-(4-phenyl-Δ^2-thiazolin-2-yl)aminophenyl]sulphide]	501 nM
c1cc(Sc2ccc(NC3=NCCS3)cc2)ccc1NC1=NCCS1 [Example 3, Bis[4-(Δ^2-thiazolin-2-yl)aminophenyl]sulphide HCl salt]	776 nM
CC1CN=C(Nc2ccc(Sc3ccc(NC4=NCC(C)S4)cc3)cc2)S1 (stereo not drawn) [Example 22, Bis[4-(5-methyl-Δ^2-thiazolin-2-yl)aminophenyl]sulphide]	123 nM
CN1CCSC1=Nc1ccc(Sc2ccc(N=C3SCCN3C)cc2)cc1 [Example 17, Bis[4-(3-methyl-thiazolidin-2-imino)phenyl]sulphide]	265 nM
c1ccc(Sc2ccc(NC3=NCCS3)cc2)cc1 [Example 12]	97.8 nM
c1cc(Sc2ccc(NC3=NCCS3)cc2)ccc1NC1=NCCS1 [Example 2, Bis[4-(Δ^2-thiazolin-2-yl)aminophenyl]sulphide]	349 nM
COC(=O)Cc1cc(NC2=NCCS2)ccc1Sc1ccccc1 [Example 10, Methyl[2-phenylthio-5-(Δ^2-thiazolin-2-yl)amino]phenylacetate]	209 nM

system: not listed separately; test: appearance of the isolated salt in air (hygroscopicity); type: physicochemical; settings: after lyophilization
Protocol: 3 g of bis[4-(Δ^2 -thiazolin-2-yl)aminophenyl]sulphide are taken up in 0.6 ml of 1N HCl and 10 ml of H2 O and the mixture is lyophilized.

Compound	hygroscopicity
c1cc(Sc2ccc(NC3=NCCS3)cc2)ccc1NC1=NCCS1 [Example 3, Bis[4-(Δ^2-thiazolin-2-yl)aminophenyl]sulphide HCl salt]	Hygroscopic crystals which deliquesce in air
